From US20130324489A1, “NEW ANTIFUNGAL COMPOSITIONS” (DSM IP ASSETS B.V., priority 2011, published 2013)

Tests used:
Botrytis cinerea = experiment: In vitro antifungal activity, 96-well microtiter plates; format: cell-based; conditions: 1.25 ppm natamycin, 25° C.
Protocol: The following compositions were tested: […] After incubation of the microtiter plates at 25° C., the in vitro antifungal activity (%) of the individual active ingredients was assessed by calculating the reduction in mould growth observed in the presence of the active ingredient in comparison to the mould growth observed in the absence of the active ingredient. The expected antifungal activity (E in %) of the active ingredient combination was calculated according to the Colby equation (Colby, 1967): […] wherein X and Y are the observed antifungal activities (in %) of the individual active ingredients X and Y, respectively.

Penicillium italicum = experiment: as above; format: cell-based; conditions: 0.63 ppm natamycin, 5.0 ppm vinclozolin, 10 ppm procymidone, alone or natamycin + one of them, 25° C., day 3
Protocol: Subsequently, 100 μl of a Botrytis cinerea suspension prepared in PCB medium was used to inoculated each well with 2.5×10^3 spores/ml.
After incubation of the microtiter plates at 25° C., the in vitro antifungal activity (%) of the individual active ingredients was assessed by calculating the reduction in mould growth observed in the presence of the active ingredient in comparison to the mould growth observed in the absence of the active ingredient. The expected antifungal activity (E in %) of the active ingredient combination was calculated according to the Colby equation (Colby, 1967): […]
wherein X and Y are the observed antifungal activities (in %) of the individual active ingredients X and Y, respectively. If the observed antifungal activity (O in %) of the combination exceeds the expected antifungal activity (E in %) of the combination and the resulting synergy factor O/E is thus >1.0, the combined application of the active ingredients leads to a synergistic antifungal effect.
The experiment was conducted as described in Example 10, except for the fact that the following compositions were tested:
Furthermore, Penicillium italicum was used for inoculation. The antifungal activity (in %) of the individual and combined active ingredients was determined according to the method described in Example 10.

SMILES | Observed antifungal activity O (%) (Botrytis cinerea; 3.0 ppm iprodione or both, day 5) | Observed antifungal activity O (%) (Botrytis cinerea; 8.0 ppm iprodione or both, day 12) | Observed antifungal activity O (%) (Botrytis cinerea; 1.5 ppm vinclozolin, 1.25 ppm procymidone, alone or natamycin + one of them, day 3) | Observed antifungal activity O (%) (Botrytis cinerea; 1.5 ppm vinclozolin, 1.25 ppm procymidone, alone or natamycin + one of them, day 6) | Observed antifungal activity O (%) (Botrytis cinerea; 7.0 ppm vinclozolin, 2.0 ppm procymidone, alone or natamycin + one of them, day 10) | Observed antifungal activity O (%) (Penicillium italicum)
CC(C)NC(=O)N1CC(=O)N(c2cc(Cl)cc(Cl)c2)C1=O [Iprodione, iprodione] | 50 | 50 | – | – | – | –
C=CC1(C)OC(=O)N(c2cc(Cl)cc(Cl)c2)C1=O (stereo not drawn) [Vinclozolin, vinclozolin] | – | – | 0 | 0 | 0 | 0
